A word on the IC50: it is the point on the concentration scale where inhibition reaches its midpoint. By DC50 is commonly meant the midpoint of the concentration-degradation curve. A low value points to a more potent degrader.

Each structure is given as a SMILES string. Like-named read-outs stand apart in the source and are kept apart here.

For assay [1], the target named is T1, androgen receptor (AR) splicing variant AR-v7 (Homo sapiens, UniProt P10275).
T1 construct: The degradation activity of compounds on AR-v7 in 22RV1 cells; host or cells: 22RV1 cells
T1 sequence (P10275 1-644 isoform P10275-3): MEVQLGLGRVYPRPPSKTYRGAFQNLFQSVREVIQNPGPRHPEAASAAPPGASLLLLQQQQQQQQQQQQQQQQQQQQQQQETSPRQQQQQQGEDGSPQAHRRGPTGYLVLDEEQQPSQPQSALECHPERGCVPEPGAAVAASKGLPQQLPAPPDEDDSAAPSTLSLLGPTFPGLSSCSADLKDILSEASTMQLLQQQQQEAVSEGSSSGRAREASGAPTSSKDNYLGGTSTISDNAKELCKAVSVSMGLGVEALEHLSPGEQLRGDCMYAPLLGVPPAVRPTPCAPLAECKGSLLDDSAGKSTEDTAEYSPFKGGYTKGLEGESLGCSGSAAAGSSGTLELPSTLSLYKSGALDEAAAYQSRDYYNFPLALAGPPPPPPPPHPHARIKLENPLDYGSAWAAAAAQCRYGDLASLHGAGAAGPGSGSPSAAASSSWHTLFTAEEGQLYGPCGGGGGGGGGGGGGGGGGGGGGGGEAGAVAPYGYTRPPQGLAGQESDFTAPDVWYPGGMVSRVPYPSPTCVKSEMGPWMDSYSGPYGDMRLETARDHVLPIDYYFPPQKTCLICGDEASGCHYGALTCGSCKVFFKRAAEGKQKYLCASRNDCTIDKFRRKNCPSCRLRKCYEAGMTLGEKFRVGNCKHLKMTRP
Put plainly: Degradation activity on androgen receptor splicing variant AR-v7 in 22RV1 cells (ELISA). Conditions: AR-v7 degradation in 22RV1 cells, 48 h, class symbols. The format is cell-based. On the technique in general: ELISA stands for enzyme-linked immunosorbent assay.

Where [2] appears, read: Homo sapiens, 22Rv1, 144 h, read-out: 22RV1 IC50 (nM), 22RV1 cells, 6 days culture, CCK-8, OD 450 nm.
[3] abbreviates: read-out: 22RV1 IC50, 22RV1 cells, 6 days culture, CCK-8, OD 450 nm.

Take `CC(C)(c1ccc(OCc2ccnc(OC3COC3)n2)cc1)c1ccc(O[C@H]2C[C@H](Nc3ccc4c(c3)C(=O)N(C3CCC(=O)NC3=O)C4=O)C2)cc1` (some centres unmarked) [Example 369, 2-(2,6-dioxopiperidin-3-yl)-5-(((1r,3r)-3-(4-(2-(4-((2-(oxetane-3-yloxy)pyrimidin-4-yl)methoxy)phenyl)isopropan-2-yl)phenoxy)cyclobutyl)amino) isoindolin-1,3-dione]: the IC50 in the assay with 22RV1 cells (setting [2]) worked out at 6 nM. Also, the DC50 in assay [1] was less than 10 nM.
For `Cc1nnc(-c2cnc(Oc3ccc(C(C)(C)c4ccc(O[C@H]5C[C@H](Nc6ccc7c(c6)C(=O)N(C6CCC(=O)NC6=O)C7=O)C5)cc4)cc3)o2)o1` (some centres unmarked) [Example 96, 2-(2,6-dioxopiperidin-3-yl)-5-(((1r,3r)-3-(4-(2-(4-((5-(5-methyl-1,3,4-oxadiazol-2-yl)oxazol-2-yl)oxy)phenyl)propan-2-yl)phenoxy)cyclobutyl)amino) isoindolin-1,3-dione] the same measures were 25 nM and less than 10 nM.
In the same order, the values of `CC(O)c1ccc(Oc2ccc(C(C)(C)c3ccc(O[C@H]4C[C@H](Nc5ccc6c(c5)C(=O)N(C5CCC(=O)NC5=O)C6=O)C4)cc3)cc2)cn1` (some centres unmarked) [Example 123] are 7 nM and less than 10 nM.
For `CC(C)(c1ccc(OCc2ccnc(N3CC4(COC4)C3)n2)cc1)c1ccc(C(=O)NC2CN(c3ccc4c(c3)C(=O)N(C3CCC(=O)NC3=O)C4=O)C2)cc1` (centres unmarked) [Example 506, 4-(2-(4-((2-(2-oxa-6-azaspiro[3.3]heptan-6-yl)pyrimidin-4-yl)methoxy)phenyl)propan-2-yl)-N-(1-(2-(2,6-dioxopiperidin-3-yl)-1,3-dioxoisoindolin-5-yl)azetidin-3-yl)benzamide] the same measures were 4 nM and less than 10 nM.
For the compound `Cc1nnc(Oc2ccc(C(C)(C)c3ccc(O[C@H]4C[C@H](Nc5ccc6c(c5)C(=O)N(C5CCC(=O)NC5=O)C6=O)C4)cc3)cc2)o1` (some centres unmarked) [Example 429, 2-(2,6-dioxopiperidin-3-yl)-5-((1r,3r)-3-(4-(2-(4-((5-methyl-1,3,4-oxadiazol-2-yl)oxy)phenyl)propan-2-yl)phenoxy)cyclobutyl)aminoisoindol-1,3-dione], the IC50 in the assay with 22RV1 cells (setting [2]) came to 9 nM. Moreover, the DC50 in assay [1] is less than 10 nM.
For `CCC(CC)(c1ccc(Oc2ccc(C(C)O)nn2)cc1)c1ccc(O[C@H]2C[C@@H](Nc3ccc4c(c3)C(=O)N(C3CCC(=O)NC3=O)C4=O)C2)cc1` (some centres unmarked) [Example 430] the same measures were 9 nM and less than 10 nM.
In the same order, the values of `Cc1cnc(N2CC3(COC3)C2)nc1COc1ccc(C(C)(C)c2ccc(O[C@H]3C[C@H](Nc4ccc5c(c4)C(=O)N(C4CCC(=O)NC4=O)C5=O)C3)cc2)cc1` (some centres unmarked) [Example 204] are 6 nM and less than 10 nM.
Consider `CC(C)(c1ccc(Oc2cc(-n3nccn3)ccn2)cc1)c1ccc(O[C@H]2C[C@H](Nc3ccc4c(c3)C(=O)N(C3CCC(=O)NC3=O)C4=O)C2)cc1` (some centres unmarked) [Example 168], for which, in the assay on 22RV1 cells (setting [2]), the IC50 is 18 nM. In addition, the DC50 in assay [1] was in the range of 11 to 100 nM.
For `CC(c1nccc(COc2ccc(C(C)(C)c3ccc(O[C@H]4C[C@H](Nc5ccc6c(c5)C(=O)N(C5CCC(=O)NC5=O)C6=O)C4)cc3)cc2)n1)N1CCC1` (some centres unmarked) [Example 249] the same measures were 6 nM and less than 10 nM.
Consider `CC(C)(c1ccc(OCc2ccnc(N3CCC[C@H](O)C3)n2)cc1)c1ccc(O[C@H]2C[C@@H](Nc3ccc4c(c3)C(=O)N(C3CCC(=O)NC3=O)C4=O)C2)cc1` (some centres unmarked) [Example 399], for which the IC50 with 22RV1 cells (setting [2]) came out at 16 nM. For the same compound, the DC50 in assay [1] is less than 10 nM.
In the same order, the values of `CC(C)(c1ccc(OCc2ccnc(N3CC4(CCOCC4)C3)n2)cc1)c1ccc(O[C@H]2C[C@@H](Nc3ccc4c(c3)C(=O)N(C3CCC(=O)NC3=O)C4=O)C2)cc1` (some centres unmarked) [Example 89, 5-(((1s,3s)-3-(4-(2-(4-((2-(7-oxa-2-azaspiro[3.5]nonan-2-yl)pyrimidin-4-yl)methoxy)phenyl)propan-2-yl)phenoxy)cyclobutyl)amino)-2-(2,6-dioxopiperidin-3-yl)isoindolin-1,3-dione] are 16 nM and less than 10 nM.
On to `CC(C)(c1ccc(OCc2cncc(N3CC4(COC4)C3)n2)cc1)c1ccc(O[C@H]2C[C@H](Nc3ccc4c(c3)C(=O)N(C3CCC(=O)NC3=O)C4=O)C2)cc1` (some centres unmarked) [Example 539], for which the IC50 in the assay on 22RV1 cells (setting [2]) came to 8 nM. In assay [1], this compound returned a DC50 of less than 10 nM.
For `CC(=O)c1ccc(Oc2ccc(C3(c4ccc(O[C@H]5C[C@H](Nc6ccc7c(c6)C(=O)N(C6CCC(=O)NC6=O)C7=O)C5)cc4)CCCC3)cc2)nn1` (some centres unmarked) [Example 104] the same measures were 1 nM and less than 10 nM.
In the same order, the values of `CC(C)(c1ccc(Oc2cc(-n3ccnn3)ccn2)cc1)c1ccc(O[C@H]2C[C@H](Nc3ccc4c(c3)C(=O)N(C3CCC(=O)NC3=O)C4=O)C2)cc1` (some centres unmarked) [Example 169] are 10 nM and less than 10 nM.
For `CC(C)(c1ccc(Oc2cccnc2)cc1)c1ccc(O[C@H]2C[C@H](Nc3ccc4c(c3)C(=O)N(C3CCC(=O)NC3=O)C4=O)C2)cc1` (some centres unmarked) [Example 547] the same measures were 9 nM and less than 10 nM.
As for `Cc1nc(-c2ncc(Oc3ccc(C(C)(C)c4ccc(OC5CC(Nc6ccc7c(c6)C(=O)N(C6CCC(=O)NC6=O)C7=O)C5)cn4)cc3)cn2)no1` (centres unmarked) [Example 221, 2-(2,6-dioxopiperidin-3-yl)-5-((1r,3r)-3-((6-(2-(4-((2-(5-methyl-1,2,4-oxadiazol-3-yl)pyrimidin-5-yl)oxy)phenyl)propan-2-yl)pyridin-3-yl)oxy)cyclobutyl)amino)isoindolin-1,3-dione], in the assay on 22RV1 cells (setting [3]), the IC50 turned out to be 6 nM. In assay [1], this compound showed a DC50 of less than 10 nM.
On to `CC(C)(c1ccc(OCc2ccnc(-c3ncon3)n2)cc1)c1ccc(O[C@H]2C[C@@H](Nc3ccc4c(c3)C(=O)N(C3CCC(=O)NC3=O)C4=O)C2)cc1` (some centres unmarked) [Example 276], for which the concentration for half-maximal inhibition (IC50) in the assay with 22RV1 cells (setting [2]) worked out at 6 nM. In assay [1], this compound registered a DC50 of less than 10 nM.
In the same order, the values of `CC(C)(c1ccc(OCCCNc2ccc3c(c2)C(=O)N(C2CCC(=O)NC2=O)C3=O)cc1)c1ccc(OCc2ccnc(OC3CC3)n2)cc1` (centres unmarked) [Example 70, 5-((3-(4-(2-(4-((2-cyclopropyloxypyrimidin-4-yl)methoxy)phenyl)propan-2-yl)phenoxy)propyl)amino)-2-(2,6-dioxopiperidin-3-yl)isoindolin-1,3-dione] are 30 nM and 11 to 100 nM.
In the same order, the values of `CC(O)c1ccc(Oc2ccc(C3(c4ccc(O[C@H]5C[C@H](Nc6ccc7c(c6)C(=O)N(C6CCC(=O)NC6=O)C7=O)C5)cc4)CCCC3)cc2)nn1` (some centres unmarked) [Example 103] are 2 nM and less than 10 nM.
Take `CC(CNc1ccc2c(c1)C(=O)N(C1CCC(=O)NC1=O)C2=O)COc1ccc(C(C)(C)c2ccc(OCc3ccnc(N4CC5(COC5)C4)n3)cc2)cc1` (centres unmarked) [Example 496, 5-((3-(4-(2-(4-((2-(2-oxa-6-azaspiro[3.3]heptan-6-yl)pyrimidin-4-yl)methoxy)phenyl)propan-2-yl)phenoxy)-2-methylpropyl)amino)-2-(2,6-dioxopiperidin-3-yl)isoindolin-1,3-dione]: the IC50 with 22RV1 cells (Homo sapiens, 22Rv1, 144 h, read-out: 22RV1 IC50 (nM)) was found to be 61 nM. The compound further came in with a DC50 in assay [1] of less than 10 nM.
In the case of `CC(=O)c1ncc(Oc2ccc(C(C)(C)c3ccc(OC4CC(Nc5ccc6c(c5)C(=O)N(C5CCC(=O)NC5=O)C6=O)C4)cn3)cc2)cn1` (centres unmarked) [Example 222, 5-((1r,3r)-3-((6-(2-(4-((2-acetylpyrimidin-5-yl)oxy)phenyl)propan-2-yl)pyridin-3-yl)oxy)cyclobutyl)amino)-2-(2,6-dioxopyridin-3-yl)isoindolin-1,3-dione], in the assay on 22RV1 cells (setting [3]), the IC50 is 3 nM. The DC50 in assay [1] is less than 10 nM.
Take `CC(C)(c1ccc(Oc2cnc(CO)nc2)cc1)c1ccc(O[C@H]2C[C@H](Nc3ccc4c(c3)C(=O)N(C3CCC(=O)NC3=O)C4=O)C2)cc1` (some centres unmarked) [Example 549]: the IC50 in the assay with 22RV1 cells (setting [2]) turned out to be 7 nM. Besides, the DC50 in assay [1] is less than 10 nM.
In the same order, the values of `CC(C)(c1ccc(Oc2cc(-n3nccn3)ncn2)cc1)c1ccc(O[C@H]2C[C@H](Nc3ccc4c(c3)C(=O)N(C3CCC(=O)NC3=O)C4=O)C2)cc1` (some centres unmarked) [Example 578] are 8 nM and less than 10 nM.
With `O=C1CCC(N2C(=O)c3ccc(N[C@H]4C[C@@H](Oc5ccc(S(=O)(=O)c6ccc(OCc7ccnc(N8CC9(COC9)C8)n7)cc6)cc5)C4)cc3C2=O)C(=O)N1` (some centres unmarked) [Example 363, 5-(((1s,3s)-3-(4-((4-((2-(2-oxa-6-azaspiro[3.3]heptane-6-yl)pyrimidin-4-yl)methoxy)phenyl)sulfonyl)phenoxy)cyclobutyl)amino)-2-(2,6-dioxopiperidin-3-yl)isoindolin-1,3-dione], the IC50 with 22RV1 cells (setting [2]) was determined as 24 nM. In assay [1], this compound registered a DC50 of less than 10 nM.
In the same order, the values of `CC(C)(c1ccc(OCc2ccnc(N3CC(O)C3)n2)cc1)c1ccc(O[C@H]2C[C@@H](Nc3ccc4c(c3)C(=O)N(C3CCC(=O)NC3=O)C4=O)C2)cc1` (some centres unmarked) [Example 453] are 6 nM and less than 10 nM.

For the origin of these results see US20250051347A1, “BIFUNCTIONAL CHIMERIC HETEROCYCLIC COMPOUND AND USE THEREOF AS ANDROGEN RECEPTOR DEGRADER” (Hinova Pharmaceuticals, Inc., priority 2021, published 2025).
